# From US8163771B2, “11 β-HSD1 modulators” (Exelixis, Inc., priority 2008, dated 2012)
# pIC50: −log10 of the molar value.
# Biological target: T1, recombinant human 11 β-HSD1 (Homo sapiens, UniProt P28845)
# T1 construct: made in house; host or cells: E. coli
# Assay: 11 β-HSD1 SPA Assay (Scintillation Proximity Assay)
# Format: biochemical
# Outline: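 Scintillation proximity read-out of cortisol formed from 40 nM [3H]cortisone by purified recombinant human enzyme (30-100 nM, E. coli) with 1 mM NADPH, pH7.4, 2 hours at room temperature; beads with cortisol antibody and glycyrrhetinic acid stop the reaction, read next day. IC50 derived from inhibition normalised to background and maximal wells.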
# T1 sequence (P28845 whole entry): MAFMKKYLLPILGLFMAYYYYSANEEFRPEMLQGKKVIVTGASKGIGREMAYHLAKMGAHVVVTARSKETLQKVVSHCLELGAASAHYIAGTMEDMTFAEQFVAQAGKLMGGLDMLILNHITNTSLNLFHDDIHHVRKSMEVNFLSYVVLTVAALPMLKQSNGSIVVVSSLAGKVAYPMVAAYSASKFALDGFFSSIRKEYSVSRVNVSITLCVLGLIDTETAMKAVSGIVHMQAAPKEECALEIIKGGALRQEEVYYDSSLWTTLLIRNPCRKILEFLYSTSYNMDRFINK
row,SMILES,pIC50
1,"CC(C)(Oc1ccc(F)cc1Cl)C(=O)N[C@H]1C[C@H]2CC[C@@H](C1)N2c1ccc(S(C)(=O)=O)cn1 [Example 155, 2-[(2-chloro-4-fluorophenyl)oxy]-2-methyl-N-{8-[5-(methylsulfonyl)pyridin-2-yl]-8-azabicyclo[3.2.1]oct-3-endo-yl}propanamide]",> 6.70
2,"CC(C)(Oc1ccc(Cl)cc1Cl)C(=O)N[C@H]1C[C@H]2CC[C@@H](C1)N2c1cccc(S(C)(=O)=O)c1 [Example 156, 2-[(2,4-dichlorophenyl)oxy]-2-methyl-N-{8-[3-(methylsulfonyl)phenyl]-8-azabicyclo[3.2.1]oct-3-endo-yl}propanamide]",> 5.70
3,"CC(C)(Oc1cc(Cl)c(F)cc1Cl)C(=O)N[C@H]1C[C@H]2CC[C@@H](C1)N2c1ccc(S(N)(=O)=O)cn1 [Example 157, N-{8-[5-(aminosulfonyl)pyridin-2-yl]-8-azabicyclo[3.2.1]oct-3-endo-yl}-2-[(2,5-dichloro-4-fluorophenyl)oxy]-2-methylpropanamide]",> 6.70
4,"CC(C)(Oc1ccc(F)cc1Cl)C(=O)N[C@H]1C[C@H]2CC[C@@H](C1)N2c1ccc(S(N)(=O)=O)cn1 [Example 158, N-{8-[5-(aminosulfonyl)pyridin-2-yl]-8-azabicyclo[3.2.1]oct-3-endo-yl}-2-[(2-chloro-4-fluorophenyl)oxy]-2-methylpropanamide]",> 6.70
5,"CC(C)(Oc1ccc(F)cc1Cl)C(=O)N[C@H]1C[C@H]2CC[C@@H](C1)N2c1ncc(C(=O)NCC(F)(F)F)cc1F [Example 159, 6-[3-endo-({2-[(2-chloro-4-fluorophenyl)oxy]-2-methylpropanoyl}amino)-8-azabicyclo[3.2.1]oct-8-yl]-5-fluoro-N-(2,2,2-trifluoroethyl)pyridine-3-carboxamide]",> 6.70
6,"CC(C)(Oc1ccc(Cl)cc1Cl)C(=O)N[C@H]1C[C@H]2CC[C@@H](C1)N2c1ncc(C(=O)NCC(F)(F)F)cc1F [Example 160, 6-[3-endo-({2-[(2,4-dichlorophenyl)oxy]-2-methylpropanoyl}amino)-8-azabicyclo[3.2.1]oct-8-yl]-5-fluoro-N-(2,2,2-trifluoroethyl)pyridine-3-carboxamide]",> 6.70
7,"CC(C)(Oc1ncc(Cl)cc1Cl)C(=O)N[C@H]1C[C@H]2CC[C@@H](C1)N2c1ncc(C(=O)NCC(F)(F)F)cc1F [Example 161, 6-[3-endo-({2-[(3,5-dichloropyridin-2-yl)oxy]-2-methylpropanoyl}amino)-8-azabicyclo[3.2.1]oct-8-yl]-5-fluoro-N-(2,2,2-trifluoroethyl)pyridine-3-carboxamide]",> 6.70
8,"CC(C)(Oc1cc(Cl)c(F)cc1Cl)C(=O)N[C@H]1C[C@H]2CC[C@@H](C1)N2c1ncc(C(=O)NCC(F)(F)F)cc1F [Example 162, 6-[3-endo-({2-[(2,5-dichloro-4-fluorophenyl)oxy]-2-methylpropanoyl}amino)-8-azabicyclo[3.2.1]oct-8-yl]-5-fluoro-N-(2,2,2-trifluoroethyl)pyridine-3-carboxamide]",> 6.70
9,"CC(C)(Oc1ccc(Cl)cc1Cl)C(=O)N[C@H]1C[C@H]2CC[C@@H](C1)N2c1ccc(C(=O)NC2CC2)nc1 [Example 163, N-cyclopropyl-5-[3-endo-({2-[(2,4-dichlorophenyl)oxy]-2-methylpropanoyl}amino)-8-azabicyclo[3.2.1]oct-8-yl]pyridine-2-carboxamide]",> 6.70
10,"CC(C)(Oc1ccccc1C(F)(F)F)C(=O)N[C@H]1C[C@H]2CC[C@@H](C1)N2c1ccc(C(N)=O)cn1 [Example 164, 6-{3-endo-[(2-methyl-2-{[2-(trifluoromethyl)phenyl]oxy}propanoyl)amino]-8-azabicyclo[3.2.1]oct-8-yl}pyridine-3-carboxamide]",> 6.70
11,"CC(C)(C(=O)N[C@H]1C[C@H]2CC[C@@H](C1)N2c1ccc(C(N)=O)cn1)c1ccc(F)c(F)c1 [Example 165, 6-(3-endo-{[2-(3,4-difluorophenyl)-2-methylpropanoyl]amino}-8-azabicyclo[3.2.1]oct-8-yl)pyridine-3-carboxamide]",> 6.70
12,"CC(C)(Oc1ccc(Cl)c(Cl)c1)C(=O)N[C@H]1C[C@H]2CC[C@@H](C1)N2c1ccc(C(=O)NCC(F)(F)F)cc1 [Example 166, 4-[3-endo-({2-[(3,4-dichlorophenyl)oxy]-2-methylpropanoyl}amino)-8-azabicyclo[3.2.1]oct-8-yl]-N-(2,2,2-trifluoroethyl)benzamide]",> 6.70
13,"CC(C)(Oc1ccc(Cl)c(F)c1)C(=O)N[C@H]1C[C@H]2CC[C@@H](C1)N2c1ccc(C(=O)NCC(F)(F)F)cc1 [Example 167, 4-[3-endo-({2-[(4-chloro-3-fluorophenyl)oxy]-2-methylpropanoyl}amino)-8-azabicyclo[3.2.1]oct-8-yl]-N-(2,2,2-trifluoroethyl)benzamide]",> 6.70
14,"CC(C)(Oc1ccc(F)cc1C(F)(F)F)C(=O)N[C@H]1C[C@H]2CC[C@@H](C1)N2c1ccc(C(N)=O)cn1 [Example 168, 6-{3-endo-[(2-{[4-fluoro-2-(trifluoromethyl)phenyl]oxy}-2-methylpropanoyl)amino]-8-azabicyclo[3.2.1]oct-8-yl}pyridine-3-carboxamide]",> 6.70
15,"CC(C)(Oc1ccc(Cl)cc1C(F)(F)F)C(=O)N[C@H]1C[C@H]2CC[C@@H](C1)N2c1ccc(C(N)=O)cn1 [Example 169, 6-{3-endo-[(2-{[4-chloro-2-(trifluoromethyl)phenyl]oxy}-2-methylpropanoyl)amino]-8-azabicyclo[3.2.1]oct-8-yl}pyridine-3-carboxamide]",> 6.70
16,"CC(C)(Oc1ccc(Cl)cc1Cl)C(=O)N[C@H]1C[C@H]2CC[C@@H](C1)N2c1ccc(C(=O)NCC(F)(F)F)nc1 [Example 170, 5-[3-endo-({2-[(2,4-dichlorophenyl)oxy]-2-methylpropanoyl}amino)-8-azabicyclo[3.2.1]oct-8-yl]-N-(2,2,2-trifluoroethyl)pyridine-2-carboxamide]",> 6.70
17,"CC(C)(Oc1ccc(Cl)cc1Cl)C(=O)N[C@H]1C[C@H]2CC[C@@H](C1)N2c1cc(C(=O)NCC(F)(F)F)ccn1 [Example 171, 2-[3-endo-({2-[(2,4-dichlorophenyl)oxy]-2-methylpropanoyl}amino)-8-azabicyclo[3.2.1]oct-8-yl]-N-(2,2,2-trifluoroethyl)pyridine-4-carboxamide]",> 5.70
18,"CC(C)(Oc1ccc(C(F)(F)F)cc1)C(=O)N[C@H]1C[C@H]2CC[C@@H](C1)N2c1ccc(C(N)=O)cn1 [Example 172, 6-{3-endo-[(2-methyl-2-{[4-(trifluoromethyl)phenyl]oxy}propanoyl)amino]-8-azabicyclo[3.2.1]oct-8-yl}pyridine-3-carboxamide]",> 6.70
19,"CC(C)(Oc1ccc(F)cc1Cl)C(=O)N[C@H]1C[C@H]2CC[C@@H](C1)N2c1ccc(S(C)(=O)=O)cc1 [Example 173, 2-[(2-chloro-4-fluorophenyl)oxy]-2-methyl-N-{8-[4-(methylsulfonyl)phenyl]-8-azabicyclo[3.2.1]oct-3-endo-yl}propanamide]",> 6.70
20,"CC(C)(Oc1cc(Cl)c(F)cc1Cl)C(=O)N[C@H]1C[C@H]2CC[C@@H](C1)N2c1ccc(S(C)(=O)=O)cc1 [Example 174, 2-[(2,5-dichloro-4-fluorophenyl)oxy]-2-methyl-N-{8-[4-(methylsulfonyl)phenyl]-8-azabicyclo[3.2.1]oct-3-endo-yl}propanamide]",> 5.70
21,"CC(C)(Oc1ncc(Cl)cc1Cl)C(=O)N[C@H]1C[C@H]2CC[C@@H](C1)N2c1ccc(S(C)(=O)=O)cc1 [Example 175, 2-[(3,5-dichloropyridin-2-yl)oxy]-2-methyl-N-{8-[4-(methylsulfonyl)phenyl]-8-azabicyclo[3.2.1]oct-3-endo-yl}propanamide]",> 6.70
22,"CC(C)(Oc1ccc(F)cc1C(F)(F)F)C(=O)N[C@H]1C[C@H]2CC[C@@H](C1)N2c1ccc(S(C)(=O)=O)cn1 [Example 176, 2-{[4-fluoro-2-(trifluoromethyl)phenyl]oxy}-2-methyl-N-{8-[5-(methylsulfonyl)pyridin-2-yl]-8-azabicyclo[3.2.1]oct-3-endo-yl}propanamide]",> 6.70
23,"CC(C)(Oc1ccc(F)cc1C(F)(F)F)C(=O)N[C@H]1C[C@H]2CC[C@@H](C1)N2c1ccc(S(N)(=O)=O)cn1 [Example 177, N-{8-[5-(aminosulfonyl)pyridin-2-yl]-8-azabicyclo[3.2.1]oct-3-endo-yl}-2-{[4-fluoro-2-(trifluoromethyl)phenyl]oxy}-2-methylpropanamide]",> 6.70
24,"CC(C)(Oc1c(Cl)cc(F)cc1Cl)C(=O)N[C@H]1C[C@H]2CC[C@@H](C1)N2c1ccc(S(C)(=O)=O)cn1 [Example 178, 2-[(2,6-dichloro-4-fluorophenyl)oxy]-2-methyl-N-{8-[5-(methylsulfonyl)pyridin-2-yl]-8-azabicyclo[3.2.1]oct-3-endo-yl}propanamide]",> 6.70
25,"CC(C)(Oc1c(Cl)cc(F)cc1C(F)(F)F)C(=O)N[C@H]1C[C@H]2CC[C@@H](C1)N2c1ccc(S(C)(=O)=O)cn1 [Example 179, 2-{[2-chloro-4-fluoro-6-(trifluoromethyl)phenyl]oxy}-2-methyl-N-{8-{5-(methylsulfonyl)pyridin-2-yl]-8-azabicyclo[3.2.1]oct-3-endo-yl}propanamide]",> 6.70
26,"COc1ccc(OC(C)(C)C(=O)N[C@H]2C[C@H]3CC[C@@H](C2)N3c2ccc(S(C)(=O)=O)cn2)cc1 [Example 180, 2-methyl-2-{[4-(methyloxy)phenyl]oxy}-N-{8-[5-(methylsulfonyl)pyridin-2-yl]-8-azabicyclo[3.2.1]oct-3-endo-yl}propanamide]",> 6.70
27,"COc1ccc(OC(C)(C)C(=O)N[C@H]2C[C@H]3CC[C@@H](C2)N3c2ccc(S(N)(=O)=O)cn2)cc1 [Example 181, N-{8-[5-(aminosulfonyl)pyridin-2-yl]-8-azabicyclo[3.2.1]oct-3-endo-yl}-2-methyl-2-{[4-(methyloxy)phenyl]oxy}propanamide]",> 6.70
